Measured values reported in article PMC11790914, “Chemogenomics for steroid hormone receptors (NR3)” (Communications Chemistry, 2025).
Where “and” joins values, the source holds several entries; their conditions need not be identical. Equal values may be shown once.

Key:
HEK293T cells [1] = experiment: Cytotoxicity: necrosis induction (red fluorescent dye for permeable plasma membranes); type: cell-based; details: 1 µM, 24 h, necrotic cell count normalized to 0.1% DMSO, single replicates;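 further: compounds applied in DMEM high glucose with 0.1% FCS and 0.1% DMSO, necrotic HEK293T cells counted by red staining of cells whose plasma membranes had become permeable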
ABL1 = biological target: T1, ABL1 (Homo sapiens, UniProt P00519); experiment: Liability panel screening by DSF: ABL1; type: binding; details: read-out: Mean ΔTM ABL1
T1 construct: made in house
T1 sequence (P00519 whole entry, species assumed): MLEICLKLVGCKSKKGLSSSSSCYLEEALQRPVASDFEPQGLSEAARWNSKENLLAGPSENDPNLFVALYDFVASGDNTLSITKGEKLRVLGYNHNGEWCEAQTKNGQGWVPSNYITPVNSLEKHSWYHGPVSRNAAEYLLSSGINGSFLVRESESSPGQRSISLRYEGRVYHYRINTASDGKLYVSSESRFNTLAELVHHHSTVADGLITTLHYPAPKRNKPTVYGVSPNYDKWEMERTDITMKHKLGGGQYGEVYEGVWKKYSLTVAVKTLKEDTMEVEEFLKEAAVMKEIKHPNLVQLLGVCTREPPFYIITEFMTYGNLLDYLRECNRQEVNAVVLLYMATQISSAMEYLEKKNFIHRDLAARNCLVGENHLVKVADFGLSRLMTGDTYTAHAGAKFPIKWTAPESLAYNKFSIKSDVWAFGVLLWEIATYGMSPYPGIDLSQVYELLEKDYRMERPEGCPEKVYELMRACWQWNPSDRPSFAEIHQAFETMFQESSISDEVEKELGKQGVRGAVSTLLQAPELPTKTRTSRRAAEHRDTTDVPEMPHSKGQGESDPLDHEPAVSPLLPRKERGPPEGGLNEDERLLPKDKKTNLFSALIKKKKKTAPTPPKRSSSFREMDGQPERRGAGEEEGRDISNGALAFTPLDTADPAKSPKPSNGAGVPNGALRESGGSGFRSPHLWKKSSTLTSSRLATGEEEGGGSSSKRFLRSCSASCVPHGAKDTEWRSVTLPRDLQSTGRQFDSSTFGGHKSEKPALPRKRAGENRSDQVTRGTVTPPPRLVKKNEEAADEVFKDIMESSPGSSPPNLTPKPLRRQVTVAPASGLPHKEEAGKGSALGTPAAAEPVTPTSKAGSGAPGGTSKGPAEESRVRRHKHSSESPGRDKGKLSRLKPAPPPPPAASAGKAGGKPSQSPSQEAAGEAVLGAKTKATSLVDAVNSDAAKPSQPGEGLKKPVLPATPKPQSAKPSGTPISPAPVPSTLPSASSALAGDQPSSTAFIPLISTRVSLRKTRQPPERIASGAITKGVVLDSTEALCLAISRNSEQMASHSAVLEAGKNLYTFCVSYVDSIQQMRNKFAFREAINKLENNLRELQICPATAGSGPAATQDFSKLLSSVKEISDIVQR
In short: (§1)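 Thermal shift: in-house recombinant protein at 2 µM in 10 mM HEPES pH 7.5 with 500 mM NaCl, SYPRO Orange 1:1000, heated at 3 °C/min to 85 °C in technical duplicates. Tm is the Boltzmann inflection point, reported as ∆Tm in K.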

AURKA = biological target: T2, AURKA (Homo sapiens, UniProt O14965); experiment: Liability panel screening by DSF: AURKA; type: binding; details: read-out: Mean ΔTM AURKA
T2 construct: made in house
T2 sequence (O14965 1-403): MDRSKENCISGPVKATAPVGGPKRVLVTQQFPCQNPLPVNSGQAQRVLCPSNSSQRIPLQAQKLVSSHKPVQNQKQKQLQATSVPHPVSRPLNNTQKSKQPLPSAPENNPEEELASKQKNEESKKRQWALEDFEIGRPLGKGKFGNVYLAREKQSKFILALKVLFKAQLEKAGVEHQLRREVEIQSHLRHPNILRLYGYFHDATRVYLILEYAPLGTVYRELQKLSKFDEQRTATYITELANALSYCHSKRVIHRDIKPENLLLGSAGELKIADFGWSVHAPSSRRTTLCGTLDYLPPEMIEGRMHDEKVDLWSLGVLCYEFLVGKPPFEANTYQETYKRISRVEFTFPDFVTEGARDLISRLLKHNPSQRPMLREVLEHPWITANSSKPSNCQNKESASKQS
In short: as §1

CDK2 = biological target: T3, CDK2 (Homo sapiens, UniProt P24941); experiment: Liability panel screening by DSF: CDK2; type: binding; details: read-out: Mean ΔTM CDK2
T3 construct: made in house
In short: as §1

FGFR3 = biological target: T4, FGFR3 (Homo sapiens, UniProt P22607); experiment: Liability panel screening by DSF: FGFR3; type: binding; details: read-out: Mean ΔTM FGFR3
T4 construct: made in house
T4 sequence (P22607 23-806, species assumed): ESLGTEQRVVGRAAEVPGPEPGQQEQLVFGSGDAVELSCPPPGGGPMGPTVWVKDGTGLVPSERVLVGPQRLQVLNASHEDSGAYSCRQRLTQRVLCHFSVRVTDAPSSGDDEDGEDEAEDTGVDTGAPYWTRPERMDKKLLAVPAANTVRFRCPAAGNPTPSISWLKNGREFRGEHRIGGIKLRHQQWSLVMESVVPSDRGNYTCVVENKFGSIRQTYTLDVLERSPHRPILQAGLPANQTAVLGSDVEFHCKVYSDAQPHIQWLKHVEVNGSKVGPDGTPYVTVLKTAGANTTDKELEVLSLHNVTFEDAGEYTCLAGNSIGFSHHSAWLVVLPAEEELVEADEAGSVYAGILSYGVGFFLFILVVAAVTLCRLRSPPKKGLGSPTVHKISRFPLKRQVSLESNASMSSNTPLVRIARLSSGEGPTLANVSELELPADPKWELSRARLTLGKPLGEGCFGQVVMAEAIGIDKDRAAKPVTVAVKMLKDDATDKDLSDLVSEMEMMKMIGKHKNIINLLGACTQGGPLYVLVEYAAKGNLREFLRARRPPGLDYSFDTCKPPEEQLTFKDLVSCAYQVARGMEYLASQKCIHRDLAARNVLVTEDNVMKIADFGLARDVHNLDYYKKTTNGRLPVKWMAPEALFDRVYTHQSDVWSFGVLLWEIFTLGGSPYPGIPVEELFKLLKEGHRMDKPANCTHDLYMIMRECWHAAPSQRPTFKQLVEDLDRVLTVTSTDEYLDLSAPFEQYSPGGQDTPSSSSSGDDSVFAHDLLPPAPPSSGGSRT
In short: as §1

GSK3B = biological target: T5, GSK3B (Homo sapiens, UniProt P49841); experiment: Liability panel screening by DSF: GSK3B; type: binding; details: read-out: Mean ΔTM GSK3B
T5 construct: made in house
T5 sequence (P49841 whole entry, species assumed): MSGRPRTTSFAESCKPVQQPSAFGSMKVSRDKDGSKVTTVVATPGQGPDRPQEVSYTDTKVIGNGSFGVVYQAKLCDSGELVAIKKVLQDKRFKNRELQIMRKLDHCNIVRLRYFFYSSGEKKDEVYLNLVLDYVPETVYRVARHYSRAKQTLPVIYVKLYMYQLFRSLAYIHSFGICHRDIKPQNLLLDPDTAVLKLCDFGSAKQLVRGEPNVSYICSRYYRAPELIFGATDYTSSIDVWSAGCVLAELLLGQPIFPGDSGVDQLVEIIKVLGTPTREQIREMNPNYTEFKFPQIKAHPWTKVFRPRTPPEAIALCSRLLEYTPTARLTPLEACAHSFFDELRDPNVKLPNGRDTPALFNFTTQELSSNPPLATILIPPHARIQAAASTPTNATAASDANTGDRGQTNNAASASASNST

BRD4 = biological target: T6, BRD4 (Homo sapiens, UniProt O60885); experiment: Liability panel screening by DSF: BRD4; type: binding; details: read-out: Mean ΔTM BRD4
T6 construct: This panel comprised ten highly ligandable kinases and bromodomains; made in house
In short: as §1

BRPF1 = biological target: T7, BRPF1 (Homo sapiens, UniProt P55201); experiment: Liability panel screening by DSF: BRPF1; type: binding; details: read-out: Mean ΔTM BRPF1
T7 construct: This panel comprised ten highly ligandable kinases and bromodomains; made in house
T7 sequence (P55201 628-732 limits assumed): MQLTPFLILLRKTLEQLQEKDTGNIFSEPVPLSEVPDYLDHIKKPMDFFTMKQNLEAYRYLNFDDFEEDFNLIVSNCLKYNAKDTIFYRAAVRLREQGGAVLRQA
In short: as §1

CSNK1D = biological target: T8, CSNK1D (Homo sapiens, UniProt P48730); experiment: Liability panel screening by DSF: CSNK1D; type: binding; details: read-out: Mean ΔTM CSNK1D
T8 construct: made in house
T8 sequence (P48730 whole entry, species assumed): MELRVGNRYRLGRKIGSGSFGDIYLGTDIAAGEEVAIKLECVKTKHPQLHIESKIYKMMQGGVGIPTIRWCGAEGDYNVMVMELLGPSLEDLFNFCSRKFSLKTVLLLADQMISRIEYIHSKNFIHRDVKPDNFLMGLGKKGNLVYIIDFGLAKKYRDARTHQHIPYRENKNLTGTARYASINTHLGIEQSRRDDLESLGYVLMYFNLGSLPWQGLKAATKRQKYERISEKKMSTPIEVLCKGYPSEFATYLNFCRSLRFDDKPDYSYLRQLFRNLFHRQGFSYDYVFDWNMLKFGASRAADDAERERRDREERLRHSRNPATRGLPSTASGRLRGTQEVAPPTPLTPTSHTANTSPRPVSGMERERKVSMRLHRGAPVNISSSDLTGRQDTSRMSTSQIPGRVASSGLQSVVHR
In short: as §1

TRIM24 = biological target: T9, TRIM24 (Homo sapiens, UniProt O15164); experiment: Liability panel screening by DSF: TRIM24; type: binding; details: read-out: Mean ΔTM TRIM24
T9 construct: This panel comprised ten highly ligandable kinases and bromodomains; made in house
T9 sequence (O15164 899-1004 limits assumed): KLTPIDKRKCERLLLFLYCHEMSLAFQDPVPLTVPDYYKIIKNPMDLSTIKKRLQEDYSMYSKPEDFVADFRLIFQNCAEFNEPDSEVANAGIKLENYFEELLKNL
In short: as §1

[2] = tested on: NF-κB activity in HEK293 NF-κB reporter cells; experiment: NF-kB activity assay (GFP reporter, ionomycin/PMA); type: cell-based; details: for Mean NFκB response: n=3
In short: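 HEK293 NF-κB GFP reporter cells given compound in 0.1% DMSO for 4 h, then stimulated with ionomycin 100 ng/mL plus PMA 10 ng/mL. Imaged every 90 min over 24 h; GFP-positive cell count normalized to confluence, three independent biological replicates.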

[3] = tested on: ATF6 activity in Hela ATF6 reporter cells; experiment: Endoplasmic reticulum stress assay (ATF6 Renilla luciferase reporter, tunicamycin); type: cell-based
In short: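 HeLa ATF6 Renilla reporter cells were pretreated 4 h with compounds in 0.1% DMSO, then stimulated with tunicamycin (100 ng/mL) for 18 h. Renilla luminescence (DualGlo) was normalized to 0.1% DMSO control; five independent experiments.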

NR3A1 (ERα) = details: of estradiol; cited from earlier work
HEK293T cells [4] = experiment: Cytotoxicity: metabolic activity (WST-8 / CCK-8 assay); details: 1 µM; HEK293T, 24 h; WST-8; normalized to 0.1% DMSO; single replicates
HEK293T cells [5] = experiment: Cytotoxicity: growth-rate (change in confluence over 24 h); details: 1 µM, normalized to 0.1% DMSO control, single replicates (n=1...)
HEK293T cells [6] = experiment: Cytotoxicity: apoptosis induction (caspase-3/7 DEVD fluorogenic DNA dye); details: 1 µM; HEK293T, 24 h; apoptotic cell count normalized to 0.1% DMSO; single replicates

CCCc1c(-c2ccc(O)cc2)nn(-c2ccc(O)cc2)c1-c1ccc(O)cc1 [Propylpyrazoletriol]
Necrosis induction [NI] (HEK293T cells [1]): 1.15 and 0.83 and 0.85 and 0.82
ΔTm at 20 µM (ABL1): -0.07 °C
ΔTm at 20 µM (AURKA): 0.0212 °C
ΔTm at 20 µM (CDK2): -2.26 °C
ΔTm at 20 µM (FGFR3): -0.78 °C
ΔTm at 20 µM (GSK3B): 0.06 °C
ΔTm at 20 µM (BRD4): -2.55 °C
ΔTm at 20 µM (BRPF1): -2.86 °C
ΔTm at 20 µM (CSNK1D): 1.72 °C
ΔTm at 20 µM (TRIM24): -3.23 °C
Mean NFκB response ([2]; 1 µM, 1,5 h): 3210.54 GFP+-cells/confluence ∙ 1000
Mean NFκB response ([2]; 1 µM, 4,5 h): 4272.75 GFP+-cells/confluence ∙ 1000
Mean NFκB response ([2]; 1 µM, 7,5 h): 9949.66 GFP+-cells/confluence ∙ 1000
Mean NFκB response ([2]; 1 µM, 10,5 h): 19765.59 GFP+-cells/confluence ∙ 1000
Mean NFκB response ([2]; 1 µM, 13,5 h): 27110.00 GFP+-cells/confluence ∙ 1000
Mean NFκB response ([2]; 1 µM, 16,6 h): 32836.67 GFP+-cells/confluence ∙ 1000
Mean NFκB response ([2]; 1 µM, 19,5 h): 36663.33 GFP+-cells/confluence ∙ 1000
Mean NFκB response ([2]; 1 µM, 22,5 h): 39666.67 GFP+-cells/confluence ∙ 1000
Mean NFκB response ([2]; 1 µM, 3 h): 3501.92 GFP+-cells/confluence ∙ 1000
Mean NFκB response ([2]; 1 µM, 6 h): 6059.91 GFP+-cells/confluence ∙ 1000
Mean NFκB response ([2]; 1 µM, 9 h): 15582.73 GFP+-cells/confluence ∙ 1000
Mean NFκB response ([2]; 1 µM, 12 h): 23751.78 GFP+-cells/confluence ∙ 1000
Mean NFκB response ([2]; 1 µM, 15 h): 30496.67 GFP+-cells/confluence ∙ 1000
Mean NFκB response ([2]; 1 µM, 18 h): 34710.00 GFP+-cells/confluence ∙ 1000
Mean NFκB response ([2]; 1 µM, 21 h): 37963.33 GFP+-cells/confluence ∙ 1000
Mean NFκB response ([2]; 1 µM, 24 h): 40840.00 GFP+-cells/confluence ∙ 1000
NF-κB activity (inflammatory response to ionomycin/PMA) ([2]; HEK293 NF-κB reporter cells, compounds at recommended concentrations, imaged over 24 h, n = 3): no impact on NF-κB activity
ATF6 activity (tunicamycin-induced endoplasmic reticulum stress) ([3]; Hela ATF6 reporter cells, tunicamycin 100 ng/mL, 18 h, compounds at recommended concentrations, n = 5): failed to reduce ATF6 activity
activity at 1 µM ([3]; Homo sapiens, HeLa, 1 µM, single replicates n=1 to n=5, read-out: ER stress [rel. ATF6 activity]): 96%
rel. activity from literature, NR3A1 (ERα): % of estradiol (NR3A1 (ERα)): 120%
Metabolic activity [MA] (HEK293T cells [4]): 0.98 (2×) and 1.03 and 0.91 and 0.97 and 0.94 and 1.18 and 1.14
Growth rate [GR] (HEK293T cells [5]): 0.81 and 2.52 and 0.99 and 1.39 and 1.25 and 1.17 and 0.88 and 3.47 and 1.21 and 7.02
Apoptosis induction [AI] (HEK293T cells [6]): 1.04 and 1.18 and 0.79 and 1.33 and 1.63 and 1.23
